Assays:
[1] = 100 kPa, Liquid; for viscosity: Capillary tube (Ostwald / Ubbelohde) method; for mass density: Vibrating tube method
[2] = xn = mol fraction of the nth substance listed; conditions: 100 kPa, Liquid; for viscosity: Capillary tube (Ostwald / Ubbelohde) method; for mass density: Vibrating tube method

CCNCCO [2-(ethylamino)ethanol]
[1]
Conditions | mass density [kg/m3] | viscosity [mPa·s]
293.15 K | 916.8 | 15.39
303.15 K | 909.7 | 9.65
313.15 K | 901.3 | 6.64
323.15 K | 894.7 | 4.53
333.15 K | 887.2 | 3.36

CCNCCO [2-(ethylamino)ethanol] + CCN(CC)CCO
[2]
Conditions | mass density, 293.15 K [kg/m3] | mass density, 303.15 K [kg/m3] | mass density, 313.15 K [kg/m3] | mass density, 323.15 K [kg/m3] | mass density, 333.15 K [kg/m3] | viscosity, 293.15 K [mPa·s] | viscosity, 303.15 K [mPa·s] | viscosity, 313.15 K [mPa·s] | viscosity, 323.15 K [mPa·s] | viscosity, 333.15 K [mPa·s]
x2 = 0 | 916.8 | 909.7 | 901.3 | 894.7 | 887.2 | 15.39 | 9.65 | 6.64 | 4.53 | 3.36
x2 = 0.2 | 910 | 903 | 894.8 | 887.8 | 880.6 | 12.19 | 7.84 | 5.35 | 3.85 | 2.88
x2 = 0.4 | 903 | 895.5 | 887.6 | 880 | 872.1 | 9.87 | 6.51 | 4.5 | 3.3 | 2.48
x2 = 0.6 | 897 | 889 | 880.2 | 872.2 | 864.3 | 8.04 | 5.4 | 3.78 | 2.8 | 2.14
x2 = 0.8 | 889.7 | 881.6 | 873 | 864.6 | 856.4 | 6.36 | 4.36 | 3.11 | 2.31 | 1.79

CCNCCO [2-(ethylamino)ethanol] + O
[2]
Conditions | mass density, 293.15 K [kg/m3] | mass density, 303.15 K [kg/m3] | mass density, 313.15 K [kg/m3] | mass density, 323.15 K [kg/m3] | mass density, 333.15 K [kg/m3] | viscosity, 293.15 K [mPa·s] | viscosity, 303.15 K [mPa·s] | viscosity, 313.15 K [mPa·s] | viscosity, 323.15 K [mPa·s] | viscosity, 333.15 K [mPa·s]
x2 = 0 | 916.8 | 909.7 | 901.3 | 894.7 | 887.2 | 15.39 | 9.65 | 6.64 | 4.53 | 3.36
x2 = 0.2 | 929.5 | 922.4 | 914 | 907.4 | 898.6 | 23.82 | 14.54 | 9.29 | 6.23 | 4.52
x2 = 0.4 | 943.1 | 936.1 | 927.8 | 920.7 | 912 | 31.73 | 18.56 | 11.41 | 7.3 | 5.03
x2 = 0.6 | 961.6 | 954.8 | 946 | 938.7 | 931.1 | 31.02 | 17.34 | 10.71 | 7.08 | 4.68
x2 = 0.8 | 985.7 | 979.5 | 972.5 | 963 | 955.6 | 13.83 | 8.34 | 5.44 | 3.73 | 2.69

CCN(CC)CCO [(diethylamino)ethanol]
[1]
Conditions | mass density [kg/m3] | viscosity [mPa·s]
293.15 K | 883.5 | 4.81
303.15 K | 875.1 | 3.37
313.15 K | 866.2 | 2.46
323.15 K | 857.5 | 1.86
333.15 K | 849.2 | 1.46

CCN(CC)CCO [(diethylamino)ethanol] + CCNCCO
[2], x1 = 1
Conditions | mass density [kg/m3] | viscosity [mPa·s]
293.15 K | 883.5 | 4.81
303.15 K | 875.1 | 3.37
313.15 K | 866.2 | 2.46
323.15 K | 857.5 | 1.86
333.15 K | 849.2 | 1.46

O [water] + CCNCCO
[2], x1 = 1
Conditions | mass density [kg/m3] | viscosity [mPa·s]
293.15 K | 998 | 1.01
303.15 K | 995.1 | 0.8
313.15 K | – | 0.65
323.15 K | 989.2 | 0.55
333.15 K | 985 | 0.47

— the NIST ThermoML archive (doi:10.1016/j.tca.2016.08.021)
